According to patent US20070021360A1, “Compositions, formulations and kit with anti-sense oligonucleotide and anti-inflammatory steroid and/or obiquinone for treatment of respiratory and lung disesase” (priority 2001, published 2007):

Assays:
adenosine A1 receptor = molecular target: T1, adenosine A1 receptor (Oryctolagus cuniculus, UniProt P34970); assay: Adenosine A1 receptor binding ([3H]DPCPX) in airway smooth muscle membranes of treated rabbits; settings: for A1 receptor Bmax: [3H]DPCPX
T1 construct: Airway smooth muscle tissue was dissected from each rabbit and a membrane fraction prepared; from tissue; host or cells: rabbit airway smooth muscle, crude plasma membranes
T1 sequence (P34970 1-328): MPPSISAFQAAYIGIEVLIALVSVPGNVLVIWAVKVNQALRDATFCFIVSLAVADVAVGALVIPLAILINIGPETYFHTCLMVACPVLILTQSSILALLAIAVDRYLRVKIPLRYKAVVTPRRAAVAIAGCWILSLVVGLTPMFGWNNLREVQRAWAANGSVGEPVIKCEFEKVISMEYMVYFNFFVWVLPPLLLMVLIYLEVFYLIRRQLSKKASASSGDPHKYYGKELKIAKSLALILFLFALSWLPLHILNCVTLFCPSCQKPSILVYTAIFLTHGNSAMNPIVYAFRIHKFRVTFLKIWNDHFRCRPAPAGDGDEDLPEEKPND
Excerpt: At the conclusion of the cross-over experiment of Example 3 above, airway smooth muscle from all rabbits was quantitatively analyzed for adenosine A1 receptor number. As a control for the specificity of the anti-sense oligonucleotide, adenosine A2 receptors, which should not have been affected, were also quantified. Airway smooth muscle tissue was dissected from each rabbit and a membrane fraction prepared according to the method of Kleinstein et al. (Kleinstein, J. and Glossrnann, H., Naunyn-Schrniedeberg's Arch Pharmacol. 305: 191-200 (1978)), the relevant portion of which is hereby incorporated in its entirety by reference, with slight modifications. Crude plasma membrane preparations were stored at −70 EC until the time of assay. Protein content was determined by the method of Bradford (M. Bradford, Anal. Biochem. 72, 240-254 (1976), the relevant portion of which is hereby incorporated in its entirety by reference). Frozen plasma membranes were thawed at room temperature and were incubated with 0.2 U/ml adenosine deaminase for 30 minutes at 37 EC to remove endogenous adenosine. The binding of [^3H] DPCPX (A1 receptor-specific) or [^3H] CGS-21680 ([…]) was measured as previously described by Ali et al. (Ali, S. et al., J. Pharmacol. Exp. Ther. 268, Ara. J. Physiol 266, L271-277 (1994), the relevant portion of which is hereby incorporated in its entirety by reference). […] There was no change in adenosine A2 receptor number, as assayed by specific binding of the A2 receptor-specific agonist 2-[p-(2-carboxyethyl)-phenethylamino]-5′-(N-ethylcarboxamido) adenosine (CGS-21680). This is illustrated in Table 6 below.
(§1) A membrane fraction was prepared according to the method of Ali et al. (Ali, S., et al., Am. J. Resp. Crit Care Med. 149: 908 (1994), the relevant section relating to the preparation of the membrane fraction is incorporated in its entirety hereby by reference). The protein content was determined by the method of Bradford and plasma membranes were incubated with 0.2 U/ml adenosine deaminase for 30 minutes at 37 EC to remove endogenous adenosine. See, Bradford, M. M. Anal. Biochem. 72, 240-254 (1976), the relevant portion of which is hereby incorporated in its entirety by reference. The binding of [^3H]DPCPX, [^3H]NPC17731, or [^3H]CGS-21680 was measured as described by Jarvis et al. See, Jarvis, M. F., et al., Pharmacol. Exptl. Ther. 251, 888-893 (1989), the relevant portion of which is fully incorporated herein by reference.

B2 bradykinin receptor = molecular target: T2, B2 bradykinin receptor (Oryctolagus cuniculus, UniProt Q28642); assay: Bradykinin B2 receptor binding ([3H]NPC 17731) in airway smooth muscle membranes of treated rabbits; parameters: species or system rabbit; settings: for B2 receptor Bmax: [3H]NPC 17731
T2 construct: Tissue from airway smooth muscle was dissected to primary, secondary and tertiary bronchi from rabbits; from tissue; host or cells: rabbit airway smooth muscle membranes
T2 sequence (Q28642 1-367): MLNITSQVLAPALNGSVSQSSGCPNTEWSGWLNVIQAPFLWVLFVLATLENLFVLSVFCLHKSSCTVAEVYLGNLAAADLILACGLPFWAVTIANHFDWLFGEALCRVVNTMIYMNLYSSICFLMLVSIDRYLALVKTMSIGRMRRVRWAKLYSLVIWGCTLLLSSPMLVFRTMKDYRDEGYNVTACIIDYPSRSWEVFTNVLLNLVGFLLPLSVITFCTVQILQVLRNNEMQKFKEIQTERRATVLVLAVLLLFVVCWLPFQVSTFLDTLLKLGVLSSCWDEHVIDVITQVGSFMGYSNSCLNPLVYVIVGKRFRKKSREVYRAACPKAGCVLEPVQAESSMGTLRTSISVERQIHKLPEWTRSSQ
Protocol: as §1

[1] = rabbits treated with 2 mg oligo
[2] = rabbits treated with 20 mg oligo

For “5′-GTAGCAGGCGGGGATGGGGGC-3′ [HAdA1MM1, reference compound]”, the Kd (adenosine A1 receptor; Kd of [3H]DPCPX in membranes of rabbits treated with 2 mg oligo) was 0.37 ± 0.033 nM, the Kd (adenosine A1 receptor; Kd of [3H]DPCPX in membranes of rabbits treated with 20 mg oligo) was 0.34 ± 0.027 nM and the “A1 receptor Bmax” value (adenosine A1 receptor; [1]) was 51.8 ± 3.88 fmol. For the same substance, the “A1 receptor Bmax” value (adenosine A1 receptor; [2]) was 52.0 ± 3.64 fmol, the “A1-Specific Binding” value (adenosine A1 receptor; airway smooth muscle membranes after cross-over experiment, mean (n = 8) ± SEM) was 1105 ± 48 and the Kd (B2 bradykinin receptor; Kd of [3H]NPC 17731 in membranes of rabbits treated with 2 mg oligo) was 0.38 ± 0.028 nM. For the same substance, the Kd (B2 bradykinin receptor; Kd of [3H]NPC 17731 in membranes of rabbits treated with 20 mg oligo) was 0.35 ± 0.024 nM, the “B2 receptor Bmax” value (B2 bradykinin receptor; [1]) was 14.6 ± 1.02 fmol and the “B2 receptor Bmax” value (B2 bradykinin receptor; [2]) was 14.0 ± 1.0 fmol.
